Test results published in patent US4562191A (priority 1983, dated 1985).
Where “and” joins values, the source holds several entries; their conditions need not be identical. Equal entries are not always repeated.

Tested on: Male CD-1 albino mice
Design: species or system mouse (CD-1 albino)
Conditions: mouse, in vivo

| Structure (SMILES) | Mean number of contortions ± S.D. | No. of animals exhibiting contortions out of total |
| --- | --- | --- |
| CC(=O)Oc1ccccc1C(=O)O [Acetyl-salicylic acid, acetylsalicylic acid] | 13.5 ± 11.1 | 4/6 |
| CCC(=O)O[C@](Cc1ccccc1)(c1ccccc1)[C@H](C)CN(C)C [D-propoxyphene] | 2.5 ± 2.1 | 2/6 |
| CCCCC1C(=O)N(c2ccccc2)N(c2ccccc2)C1=O [Phenylbutazone] |  | 3/6 and 5/6 |
